# Values joined by “and” are separate entries in the source; they are usually repeats but may differ in a detail not shown here. Equal entries are not always repeated. Marks after values point to notes of the source that are not given here.
# Columns and labels:
# T2 cells = test: Cytotoxic assay of PSA peptide specific T cells against T2 cells; assay type: cell-based, human; settings: 24 hour assay, E:T ratio 25:1
# CIR-A2 cells = test: CTL activity of PSA-OP specific T cell lines against peptide pulsed CIR-A2 cells; assay type: cell-based, human; settings: effector T/PSA-OP-1; 50 μg/ml peptide for 3 h; 18 h CTL assay; E:T ratio 25:1; No peptide 7.9(2.7)
# Protocol: Peripheral blood mononuclear cells (PBMCs) were obtained from heparinized blood of healthy HLA-A2 donors using a lymphocyte separation medium gradient (Organon Technika, Durham, N.C.). The mononuclear cell fraction was washed 3 times and PBMCs were resuspended in complete medium: AIM V (Life Technologies, Inc.) supplemented with 5% human AB serum (Valley Biomedical, Winchester, Va.), 2 mM glutamine, 100 U/ml of penicillin, and 100 μg/ml of streptomycin (GIBCO). Cells (2×10^5) in complete medium in a volume of 100 μl were put into each well of a 96-well flat-bottom assay plate (Corning, Costar Corp., Cambridge, Mass.). Peptides were added to cultures at a final concentration of […]. Cultures were incubated for 5 days at 37° C. in a humidified atmosphere containing 5% CO2. […]
# Various target cells were labeled with 50 μCi of ^111In-oxyquinoline (Medi-Physics Inc., Arlington, Ill.) for 15 minutes at room temperature. […] Determinations were carried out in triplicate and standard deviations were calculated. […] Specific Lysis was calculated using the following formula: % of Specific Release=observed release(cpm)−spontaneous release(cpm) total releae(cpm)−spontaneous release(cpm)×100
# Spontaneous release was determined from wells to which 100 μl of complete medium, instead of effector cells was added. Total releasable radioactivity was obtained after treatment of target cells with 2.5% Triton X-100.
# NK target K562 = test: Cytotoxic assay of PSA peptide specific T cells against K562; assay type: cell-based, human; settings: T-Donor A T-cell line; 24 hour assay, E:T ratio 25:1
# From the text: (§1) Four of the T cell lines derived from three different individuals were then assays for their ability to lyse human cells (Table 9). […] No lysis was seen using the PSA negative human colon cancer cell line COLO-205. While 80% lysis was seen using the LNCAP PSA expressing human prostate cancer cell line. When employing the NK target K562, which measures non-specific lysis due to NK cell activity, only 23% lysis was obtained. Similar results were seen employing a different T cell line obtained from the same patient which was derived from pulsing with PSA peptide 154-163. Two additional T cell lines which were derived from peptide 154-163 were also analyzed. One was from a normal donor (T-1538) and one was from a prostate cancer patient (T-PC2; T Donor C).
# [1] = target: T1, HLA class-I A2001 molecule (Homo sapiens, UniProt P04439, D140Y/D185E/D98H/E176V/E277Q/G131W/G231S/I119V/I121R/I166T/I218V/L300P/L318F/N151K/N90K/P208A/P217A/Q86G/Q94H/R138H/R169H/T345S); test: Peptide binding to HLA-A2: upregulation on T2 cells by flow cytometry (Example IV); settings: T2 cells incubated 24 h with peptide 50 μg/ml/10^6 cells; 100 cut off value for positivity; None = 16.88
# T1 construct: endogenous in cells; host or cells: T2 cells (174CEM.T2, transport deletion mutant)
# Protocol: 1×10^6 cells in serum-free IMDM were incubated with peptides at the concentration of 50 μg/ml in 24-well culture plates at 37° C. in 5% CO2. Flow cytometry for peptide binding was performed using T2 cells and single color analysis. After cells were washed three times in DPBS as above, they were incubated for 1 hr with HLA-A2 specific MAb A2,69 (One lambda, Inc., Canoga Park, Calif.), using 10 μl of a 1× working dilution per 10^6 cells. MOPC-21 (Cappel/Organon Teknika Corp.) was used as isotype control. The cells were then washed three times and incubated with 1:100 dilution of fluorescein (FITC) labeled anti-mouse IgG (Kirkegaard & Perry, Gaithersburg, Md.). Analysis was carried out using the FACScan as described above. Cells were maintained on ice during all cell preparation and staining unless otherwise stated.
# [2] = system: LNCAP PSA expressing human prostate cancer cell line; test: Cytotoxic assay of PSA peptide specific T cells against LNCAP (Example III); assay type: cell-based; settings: T-Donor A T-cell line; 24 hour assay, E:T ratio 25:1; listed as 141-150
# From the text: as §1
# human HLA A2 molecules = target: T2, human HLA A2 molecules (Homo sapiens, UniProt P04439, D140Y/D185E/D98H/E176V/E277Q/G131W/G231S/I119V/I121R/I166T/I218V/L300P/L318F/N151K/N90K/P208A/P217A/Q86G/Q94H/R138H/R169H/T345S); test: T2 cell binding assay (PSA peptide binding assay, Example II); settings: peptides at 50 μg/ml, None = 127.25
# T2 construct: endogenous in cells; host or cells: T2 cells (174CEM.T2)
# From the text: The amino acid sequence of human PSA was scanned using a predictive algorithm that combines a search for anchor residues with numerical assignments to all residues at all positions. The T2 cell binding assay was then used to determine which peptides bound human HLA A2 molecules. […] Table 7 gives the amino acid sequence of these peptides and compares them to corresponding sequences of HGK and PKA.
sequence,measurement,setting,value
"FLTPKKLQCV [PSA-1, ID No. 1]","% specific release (lysis), T2","T2 cells; T-Donor A T-cell line derived with the peptide, 111In release",10^a %
same,"% specific release (lysis), T2 + peptide",T2 cells; T-Donor A T-cell line,40^b %
same,"% of Specific release (SD), CIR-A2 cells pulsed with the peptide",CIR-A2 cells,8.4(4.0) %
same,"% specific release (lysis), K562",NK target K562,23%
same,T2 binding: relative fluorescence (mean intensity) with anti-HLA-A2 mAb,[1],127.73
same,"% specific release (lysis), LNCAP",[2],80% and 80^b %
same,"MAb A2, 69: Mean channel fluorescent intensity",human HLA A2 molecules; listed as 141-150,positive
same,"MAb A2, 69: Mean channel fluorescent intensity",human HLA A2 molecules; listed as PSA 141-150,230.34

# From patent US20050196806A1, “Prostate specific antigen oligoepitope peptide” (The Government of the USA, as represented by the Secretary, …, priority 1996, published 2005)
